Laboratory results published in ChEMBL document CHEMBL5506068 (J Med Chem, 2024).
pKd: −log10 of the molar value. Calls of active or inactive are those of the source. No cut-off for these calls is given here.

Experiments:
[1] = tested on: Mus musculus; assay: Antinociception activity in male Swiss Webster mouse model assessed as increase in maximum possible effect at 0.05 mg/kg, sc measured after 6 hrs post injection by warm-water tail immersion assay; format: functional, organism-based
[2] = tested on: Mus musculus; assay: Antinociception activity in male Swiss Webster mouse model assessed as increase in maximum possible effect at 0.1 mg/kg, sc measured after 30 to 360 mins post injection by warm-water tail immersion assay; format: functional, organism-based; details: time 30-360 min
[3] = Toxicity in Swiss Webster mouse assessed as effect on average speed at 0.05 to 0.5 mg/kg,sc measured after 30 mins; format: organism-based; details: in vivo, 0.5 h, dose 0.05-0.5 mg/kg
[4] = in vivo; details: Swiss Webster, mouse, blood and plasma, sc, 0.1 mg/kg
Description: Ratio of drug level in Swiss Webster mouse blood to plasma at 0.1 mg/kg, sc measured after 30 mins by LC-MS/MS analysis

[5] = Abuse liability in male Sprague-Dawley rat assessed as reduction in reinforcement at 0.32 to 10 microg/kg administered per infusion; format: toxicity; details: in vivo, iv, dose 0.32-10 µg/kg
[6] = Drug uptake in Swiss Webster mouse plasma at 0.1 mg/kg, sc measured after 5 mins by LC-MS/MS analysis; format: ADME, organism-based; details: in vivo
[7] = target: T1, Delta-type opioid receptor (Homo sapiens, UniProt P41143); assay: Displacement of [3H]diprenorphine from human DOR expressed in CHO cells assessed as dissociation constant incubated for […] by radioligand binding assay; format: cell-based
[8] = tested on: Mus musculus; assay: Antinociception activity in male Swiss Webster mouse model assessed as effect on tail withdrawal latency at 0.05 to 0.1 mg/kg, sc pre incubated with naltrindole for 30 mins followed by compound addition and measured after 20 mins by warm water tail immersion assay; format: functional, organism-based; details: dose 0.05-0.1 mg/kg
[9] = tested on: Mus musculus; assay: Antinociception activity in male Swiss Webster mouse model assessed as increase in maximum possible effect at 10 mg/kg, sc measured after 20 mins by warm-water tail immersion assay relative to control; format: functional
[10] = Toxicity in Swiss Webster mouse assessed as effect on locomotion at 0.05 to 0.5 mg/kg,sc measured after 30 mins; format: organism-based; details: in vivo, 0.5 h, dose 0.05-0.5 mg/kg
[11] = target: Mu-type opioid receptor (Mus musculus, UniProt P42866); assay: Displacement of [3H]Naloxone from mouse MOR expressed in CHO cells assessed as dissociation constant incubated for […] by radioligand binding assay; format: cell-based
[12] = in vivo; details: Swiss Webster, mouse, blood and plasma, sc, 0.1 mg/kg; remark: listed apart in the source
Description: Ratio of drug level in Swiss Webster mouse blood to plasma at 0.1 mg/kg, sc measured after 10 mins by LC-MS/MS analysis

[13] = tested on: Mus musculus; assay: Antinociception activity in male Swiss Webster mouse model assessed as effect on tail withdrawal latency at 0.05 to 0.1 mg/kg, sc pre incubated with nor-BNI/naltrindole for 24 hrs followed by compound addition and measured after 20 mins by warm water tail immersion assay; format: functional, organism-based; details: dose 0.05-0.1 mg/kg
[14] = target: Kappa-type opioid receptor (Mus musculus, UniProt P33534); assay: Displacement of [3H]diprenorphine from mouse KOR expressed in CHO cells assessed as dissociation constant incubated for […] by radioligand binding assay; format: cell-based
[15] = tested on: Mus musculus; assay: Antinociception activity in male Swiss Webster mouse model assessed as effect on tail withdrawal latency at 0.05 to 0.1 mg/kg, sc pre incubated with nor-BNI for 24 hrs followed by compound addition and measured after 20 mins by warm water tail immersion assay; format: functional, organism-based; details: dose 0.05-0.1 mg/kg
[16] = Toxicity in Swiss Webster mouse assessed as reduction in sedative effect at 0.05 to 0.5 mg/kg,sc; format: organism-based; details: in vivo, dose 0.05-0.5 mg/kg
[17] = in vivo; details: Swiss Webster, mouse, blood and plasma, sc, 0.1 mg/kg; remark: listed apart in the source
Description: Ratio of drug level in Swiss Webster mouse blood to plasma at 0.1 mg/kg, sc measured after 60 mins by LC-MS/MS analysis

[18] = target: T1, Delta-type opioid receptor; assay: Agonist activity at human DOR expressed in CHO cells increase in [35S]GTPgammaS binding measured after […] by scintillation counter analysis relative to SNC80; format: functional, cell-based; details: filed as agonist
[19] = tested on: Mus musculus; assay: Antinociception activity in male Swiss Webster mouse model assessed as increase in maximum possible effect at 0.05 mg/kg, sc measured until 3 hrs post injection by warm-water tail immersion assay; format: functional, organism-based

T1 sequence (P41143 whole entry): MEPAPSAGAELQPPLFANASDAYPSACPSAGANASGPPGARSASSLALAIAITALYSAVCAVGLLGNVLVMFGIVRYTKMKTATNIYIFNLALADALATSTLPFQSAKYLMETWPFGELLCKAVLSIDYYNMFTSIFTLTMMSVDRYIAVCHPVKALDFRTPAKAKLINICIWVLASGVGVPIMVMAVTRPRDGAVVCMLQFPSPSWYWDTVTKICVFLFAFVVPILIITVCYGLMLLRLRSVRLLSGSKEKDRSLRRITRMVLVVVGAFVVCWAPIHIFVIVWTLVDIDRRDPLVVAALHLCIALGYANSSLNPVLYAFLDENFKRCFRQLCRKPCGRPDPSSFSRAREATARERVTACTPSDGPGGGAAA
Kappa-type opioid receptor, sequence (P33534 whole entry): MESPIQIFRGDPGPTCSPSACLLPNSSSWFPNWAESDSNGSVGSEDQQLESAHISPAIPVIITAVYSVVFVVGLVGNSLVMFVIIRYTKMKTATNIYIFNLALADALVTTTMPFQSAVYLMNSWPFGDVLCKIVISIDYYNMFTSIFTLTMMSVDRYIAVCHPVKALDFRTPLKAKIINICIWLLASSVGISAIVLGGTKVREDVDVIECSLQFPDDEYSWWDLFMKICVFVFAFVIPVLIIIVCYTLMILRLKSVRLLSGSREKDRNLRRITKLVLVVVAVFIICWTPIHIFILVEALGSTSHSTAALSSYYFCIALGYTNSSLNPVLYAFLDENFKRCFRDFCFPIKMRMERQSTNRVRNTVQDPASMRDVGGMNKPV
Mu-type opioid receptor, sequence (P42866 whole entry): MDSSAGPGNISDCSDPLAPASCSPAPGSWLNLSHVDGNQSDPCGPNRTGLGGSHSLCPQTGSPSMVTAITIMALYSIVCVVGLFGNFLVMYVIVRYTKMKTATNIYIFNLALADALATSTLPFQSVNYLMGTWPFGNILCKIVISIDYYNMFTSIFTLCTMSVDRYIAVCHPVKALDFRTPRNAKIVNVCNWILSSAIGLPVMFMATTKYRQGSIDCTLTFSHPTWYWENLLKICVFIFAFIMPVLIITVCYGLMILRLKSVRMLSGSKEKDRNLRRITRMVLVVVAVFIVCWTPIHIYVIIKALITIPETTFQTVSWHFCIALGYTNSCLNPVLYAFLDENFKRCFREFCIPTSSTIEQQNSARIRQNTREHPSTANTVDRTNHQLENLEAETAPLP

Structure (SMILES): CN(C(=O)/C=C/c1ccco1)[C@@H]1CC[C@@]2(O)[C@H]3Cc4ccc(O)c5c4[C@@]2(CCN3CC2CC2)[C@H]1O5.Cl
- Activity [1]: inactive
- Activity [2]: Active
- Activity [3]: Toxic
- blood plasma ratio at 0.5 h [4]: 0.645
- Activity [5]: Non-Toxic
- Drug uptake [6]: Active
- pKd [7]: 8.10
- Activity [8]: inactive
- MPE [9]: 100%
- Activity [10]: Toxic
- pKd [11]: 9.11
- blood plasma ratio at 10 min [12]: 0.762
- Activity [13]: inactive
- pKd [14]: 9.66
- Activity [15]: inactive
- Activity [16]: Toxic
- blood plasma ratio at 1 h [17]: 1.45
- Emax [18]: 96.1%
- Activity [19]: Active
